In ChEMBL document CHEMBL1201862, “PubChem BioAssay data set” (2004):
Calls of active or inactive are those of the source.

Columns and labels:
INS1 = assay: INS-1E survival protection against cytokine death – cell-based, luminescence, retest, dose response (AID 449756); format: functional; details: Rattus norvegicus;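 also: cell death triggered by IL-1 beta plus TNF-alpha plus IFN-gamma mixture; protective hits raise ATP signal compared with cytokine alone wells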
[1] = molecular target: Sphingosine 1-phosphate receptor 3 (Homo sapiens, UniProt Q99500); assay: Dose response cell-based high throughput screening assay for antagonists of the Sphingosine 1-Phosphate Receptor 3 (S1P3). [Related pubchem assays: 1429, 485 ]; format: functional
[2] = Trypanosoma cruzi growth suppression in host cells – NIH3T3 host cells, beta-gal luminescence, confirmation (AID 2044); format: functional, cell-based;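 also: intracellular parasites grown in NIH/3T3 mouse fibroblasts as host cells; luminescent beta-galactosidase reporter signal from transgenic T. cruzi replicating inside host cells; inhibitors lower the luminescence signal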
[3] = molecular target: 5-hydroxytryptamine receptor 1E (Homo sapiens, UniProt P28566); assay: Counterscreen assay for S1P3 antagonists: Dose response cell-based high throughput screening assay to identify antagonists of the 5-Hydroxytryptamine Receptor Subtype 1E (5HT1E). [Related pubchem assays: 1429, 485 ]; format: functional
[4] = NIH3T3 cell viability loss – ATP luminescence, mouse fibroblasts, counter-screen, dose response (AID 2010); format: functional, cell-based;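 also: cells exposed to compound for about 90 hours before reading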
[5] = molecular target: T1, Neuropeptide Y receptor type 2 (Homo sapiens, UniProt P49146); format: functional, cell-based;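 also: HEK293 cells expressing the receptor and a CNG channel; stimulus was NPY near EC95 followed by isoproterenol to raise cAMP; antagonist potency measured as restoring cAMP signal that NPY suppresses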
[6] = molecular target: T2, Neuropeptide Y receptor type 1 (Homo sapiens, UniProt P25929); format: functional;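 also: HEK293 cells with a CNG channel challenged with NPY then isoproterenol; potency as antagonist that reverses NPY suppression of cAMP signal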
[7] = molecular target: T3, Microphthalmia-associated transcription factor (Homo sapiens, UniProt O75030); assay: reducers of TRPM1 reporter luminescence, concentration series – cell-based, SK-MEL-5, cherry-picked, set 3, MITF inhibitor project, dose response (AID 493073); format: functional;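 also: SK-MEL-5 melanoma cells with luciferase driven by the MITF target TRPM1 promoter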
T3 sequence (O75030 whole entry): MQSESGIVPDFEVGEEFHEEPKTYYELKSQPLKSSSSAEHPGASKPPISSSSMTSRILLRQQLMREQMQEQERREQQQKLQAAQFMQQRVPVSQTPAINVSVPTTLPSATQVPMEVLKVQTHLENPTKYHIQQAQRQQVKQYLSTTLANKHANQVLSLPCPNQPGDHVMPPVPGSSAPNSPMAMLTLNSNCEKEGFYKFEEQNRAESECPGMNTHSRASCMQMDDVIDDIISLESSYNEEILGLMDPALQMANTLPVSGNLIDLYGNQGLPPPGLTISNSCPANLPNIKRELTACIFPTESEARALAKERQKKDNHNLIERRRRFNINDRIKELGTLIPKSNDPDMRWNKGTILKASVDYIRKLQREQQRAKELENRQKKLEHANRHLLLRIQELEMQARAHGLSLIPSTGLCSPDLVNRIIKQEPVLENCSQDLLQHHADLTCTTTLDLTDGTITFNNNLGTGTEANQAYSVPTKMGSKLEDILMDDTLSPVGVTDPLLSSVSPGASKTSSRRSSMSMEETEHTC

HEK293 [8] = assay: cells; format: functional, cell-based; details: Homo sapiens
[9] = molecular target: T2, Neuropeptide Y receptor type 1; assay: IC50 of human NPY-Y1 blockers – cell-based, dose response (AID 1277); format: functional
HEK293 [10] = assay: NOD2 signaling inhibitors in MDP-stimulated cells, cell-based, uHTS, luminescence (AID 2001); format: functional; details: Homo sapiens
HEK293 [11] = assay: inhibition of NOD1-driven NF-kB reporter – cell-based, luminescence, uHTS, primary screen (AID 1578); format: functional; details: Homo sapiens
[12] = molecular target: T1, Neuropeptide Y receptor type 2; assay: IC50 for human NPY-Y2 blockade – cell-based, counter-screen for NPY-Y1 antagonist project, dose response (AID 1278); format: functional
HEK293 [13] = assay: cells; format: functional, cell-based; details: Homo sapiens; remark: listed apart in the source
[14] = viability loss in HEK293 cells – cell-based, plate reader, cherry-picked samples, cytotoxicity control, dose response (AID 743446); format: functional
[15] = A549 cell cytotoxicity, dose response, cytotoxicity control, plate reader, cherry-pick, antagonist series (AID 743412); format: functional, cell-based
[16] = toxicity toward HepG2 liver cells – cell-based, plate reader, cherry-pick, antagonist series, cytotoxicity control, dose response (AID 743416); format: functional
[17] = Luminescence-based counterscreen assay for KLF5 inhibitors: dose response cell-based high throughput screening assay to identify cytotoxic compounds using the IEC-6 intestinal epithelial cell line. [Related pubchem assays: 1700 (Primary screen.), 1834 (Confirmation screen.), 1858 (Summary AID.), 1905 (Counterscreen.)]; format: functional
[18] = blockers of bursicon-stimulated LGR2 cAMP reporter – cell-based, HEK293, CRE-luciferase reporter, cherry pick, set 2, dose response (AID 743343); format: functional;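 also: transfected cells were stimulated with diluted bursicon conditioned medium after compound addition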
[19] = blockade of melanocortin 4 receptor signaling – cell-based, plate reader, cherry pick, counter-screen for LGR2 antagonist project, dose response (AID 743444); format: functional;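 also: transfected HEK 293 cells stimulated with alpha-MSH peptide; potency of inhibitors of the alpha-MSH evoked signal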
[20] = A High Throughput Confirmatory Assay used to Identify Novel Compounds that Inhibit Mycobacterium Tuberculosis in the absence of Glycerol.; format: functional
[21] = molecular target: T4, Heat shock factor protein 1 (Mus musculus, UniProt P38532); assay: decrease of HSF1-responsive luciferase luminescence – cell-based, NIH3T3, dose retest, confirmation (AID 2382); format: functional;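 also: NIH3T3 fibroblasts with HSF1-driven luciferase reporter stressed by proteasome inhibitor MG132; luminescence from HSF1-driven luciferase expression after 8 hours of MG132 stress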
T4 sequence (P38532 whole entry): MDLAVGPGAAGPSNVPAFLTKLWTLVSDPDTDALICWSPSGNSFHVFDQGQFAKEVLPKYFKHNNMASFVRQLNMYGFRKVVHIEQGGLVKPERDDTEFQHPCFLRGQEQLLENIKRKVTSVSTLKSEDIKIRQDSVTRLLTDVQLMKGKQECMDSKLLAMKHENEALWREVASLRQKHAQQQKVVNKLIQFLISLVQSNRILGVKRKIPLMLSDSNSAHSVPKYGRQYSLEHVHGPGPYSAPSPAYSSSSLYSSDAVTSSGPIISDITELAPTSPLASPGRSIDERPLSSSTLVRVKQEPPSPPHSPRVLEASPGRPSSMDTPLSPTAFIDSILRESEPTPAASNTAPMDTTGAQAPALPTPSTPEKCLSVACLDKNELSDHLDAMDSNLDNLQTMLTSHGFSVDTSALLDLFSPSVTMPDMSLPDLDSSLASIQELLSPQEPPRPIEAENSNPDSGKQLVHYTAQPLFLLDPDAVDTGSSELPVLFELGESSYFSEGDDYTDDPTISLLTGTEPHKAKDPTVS

[22] = molecular target: T5, Voltage-gated N-type calcium channel alpha-1B subunit/Amyloid beta A4 precursor protein-binding family A member 1 (Homo sapiens, UniProt Q00975+Q02410); format: protein assay
[23] = molecular target: T5, Voltage-gated N-type calcium channel alpha-1B subunit/Amyloid beta A4 precursor protein-binding family A member 1; format: protein assay; remark: listed apart in the source
[24] = molecular target: 26S proteasome non-ATPase regulatory subunit 14 (Homo sapiens, UniProt O00487); assay: inhibition of proteasome subunit RPN11 – biochemical, fluorescence polarization, uHTS hits, confirmation (AID 602368); format: functional
[25] = molecular target: 72 kDa type IV collagenase (Homo sapiens, UniProt P08253); assay: Dose Response validation of uHTS RPN11 inhibitor hits using a MMP-2 Fluorescence assay.; format: functional
[26] = molecular target: T6, Carboxy-terminal domain RNA polymerase II polypeptide A small phosphatase 1 (Homo sapiens, UniProt Q9GZU7); assay: CTDSP1 inhibitors, concentration-response, biochemical, absorbance readout, ultra-high-throughput screen actives (AID 540297); format: functional
T6 sequence (Q9GZU7 whole entry): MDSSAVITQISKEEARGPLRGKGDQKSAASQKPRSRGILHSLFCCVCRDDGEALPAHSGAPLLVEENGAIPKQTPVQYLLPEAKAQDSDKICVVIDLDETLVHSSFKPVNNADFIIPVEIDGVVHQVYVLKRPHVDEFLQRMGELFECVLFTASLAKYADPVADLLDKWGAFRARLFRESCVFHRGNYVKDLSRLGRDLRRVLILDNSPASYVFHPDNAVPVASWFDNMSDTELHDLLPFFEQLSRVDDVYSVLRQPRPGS

Prothrombin = Prothrombin (Bos taurus, UniProt P00735); assay: thrombin protease inhibitors – biochemical, fluorescence polarization, uHTS hits, dose response (AID 602369); format: functional
[27] = molecular target: Mothers against decapentaplegic homolog 3 (Homo sapiens, UniProt P84022); assay: blockers of Smad3 complex formation in lysate – cell lysate, secondary confirmation, chemiluminescent ELISA, HEK293 lysate, dose response (AID 1058); format: functional
[28] = molecular target: T4, Heat shock factor protein 1; assay: enhancement of HSF1-driven luciferase signal – cell-based, NIH3T3, luminescence, dose retest, confirmation (AID 435004); format: functional;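 also: stress induced by proteasome inhibitor MG132 added 30 min after compound; luciferase reporter driven by HSF1 response element in NIH3T3 cells; actives raise luminescence as potentiators of the MG132 stress response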
[29] = molecular target: Photoreceptor-specific nuclear receptor (Homo sapiens, UniProt Q9Y5X4); format: functional;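 also: potency for compounds that break the NR2E3 corepressor complex and count as activators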
[30] = molecular target: Peroxisome proliferator-activated receptor gamma/Nuclear receptor corepressor 2 (Homo sapiens, UniProt P37231+Q9Y618); format: functional

T5 sequence (Q00975 whole entry): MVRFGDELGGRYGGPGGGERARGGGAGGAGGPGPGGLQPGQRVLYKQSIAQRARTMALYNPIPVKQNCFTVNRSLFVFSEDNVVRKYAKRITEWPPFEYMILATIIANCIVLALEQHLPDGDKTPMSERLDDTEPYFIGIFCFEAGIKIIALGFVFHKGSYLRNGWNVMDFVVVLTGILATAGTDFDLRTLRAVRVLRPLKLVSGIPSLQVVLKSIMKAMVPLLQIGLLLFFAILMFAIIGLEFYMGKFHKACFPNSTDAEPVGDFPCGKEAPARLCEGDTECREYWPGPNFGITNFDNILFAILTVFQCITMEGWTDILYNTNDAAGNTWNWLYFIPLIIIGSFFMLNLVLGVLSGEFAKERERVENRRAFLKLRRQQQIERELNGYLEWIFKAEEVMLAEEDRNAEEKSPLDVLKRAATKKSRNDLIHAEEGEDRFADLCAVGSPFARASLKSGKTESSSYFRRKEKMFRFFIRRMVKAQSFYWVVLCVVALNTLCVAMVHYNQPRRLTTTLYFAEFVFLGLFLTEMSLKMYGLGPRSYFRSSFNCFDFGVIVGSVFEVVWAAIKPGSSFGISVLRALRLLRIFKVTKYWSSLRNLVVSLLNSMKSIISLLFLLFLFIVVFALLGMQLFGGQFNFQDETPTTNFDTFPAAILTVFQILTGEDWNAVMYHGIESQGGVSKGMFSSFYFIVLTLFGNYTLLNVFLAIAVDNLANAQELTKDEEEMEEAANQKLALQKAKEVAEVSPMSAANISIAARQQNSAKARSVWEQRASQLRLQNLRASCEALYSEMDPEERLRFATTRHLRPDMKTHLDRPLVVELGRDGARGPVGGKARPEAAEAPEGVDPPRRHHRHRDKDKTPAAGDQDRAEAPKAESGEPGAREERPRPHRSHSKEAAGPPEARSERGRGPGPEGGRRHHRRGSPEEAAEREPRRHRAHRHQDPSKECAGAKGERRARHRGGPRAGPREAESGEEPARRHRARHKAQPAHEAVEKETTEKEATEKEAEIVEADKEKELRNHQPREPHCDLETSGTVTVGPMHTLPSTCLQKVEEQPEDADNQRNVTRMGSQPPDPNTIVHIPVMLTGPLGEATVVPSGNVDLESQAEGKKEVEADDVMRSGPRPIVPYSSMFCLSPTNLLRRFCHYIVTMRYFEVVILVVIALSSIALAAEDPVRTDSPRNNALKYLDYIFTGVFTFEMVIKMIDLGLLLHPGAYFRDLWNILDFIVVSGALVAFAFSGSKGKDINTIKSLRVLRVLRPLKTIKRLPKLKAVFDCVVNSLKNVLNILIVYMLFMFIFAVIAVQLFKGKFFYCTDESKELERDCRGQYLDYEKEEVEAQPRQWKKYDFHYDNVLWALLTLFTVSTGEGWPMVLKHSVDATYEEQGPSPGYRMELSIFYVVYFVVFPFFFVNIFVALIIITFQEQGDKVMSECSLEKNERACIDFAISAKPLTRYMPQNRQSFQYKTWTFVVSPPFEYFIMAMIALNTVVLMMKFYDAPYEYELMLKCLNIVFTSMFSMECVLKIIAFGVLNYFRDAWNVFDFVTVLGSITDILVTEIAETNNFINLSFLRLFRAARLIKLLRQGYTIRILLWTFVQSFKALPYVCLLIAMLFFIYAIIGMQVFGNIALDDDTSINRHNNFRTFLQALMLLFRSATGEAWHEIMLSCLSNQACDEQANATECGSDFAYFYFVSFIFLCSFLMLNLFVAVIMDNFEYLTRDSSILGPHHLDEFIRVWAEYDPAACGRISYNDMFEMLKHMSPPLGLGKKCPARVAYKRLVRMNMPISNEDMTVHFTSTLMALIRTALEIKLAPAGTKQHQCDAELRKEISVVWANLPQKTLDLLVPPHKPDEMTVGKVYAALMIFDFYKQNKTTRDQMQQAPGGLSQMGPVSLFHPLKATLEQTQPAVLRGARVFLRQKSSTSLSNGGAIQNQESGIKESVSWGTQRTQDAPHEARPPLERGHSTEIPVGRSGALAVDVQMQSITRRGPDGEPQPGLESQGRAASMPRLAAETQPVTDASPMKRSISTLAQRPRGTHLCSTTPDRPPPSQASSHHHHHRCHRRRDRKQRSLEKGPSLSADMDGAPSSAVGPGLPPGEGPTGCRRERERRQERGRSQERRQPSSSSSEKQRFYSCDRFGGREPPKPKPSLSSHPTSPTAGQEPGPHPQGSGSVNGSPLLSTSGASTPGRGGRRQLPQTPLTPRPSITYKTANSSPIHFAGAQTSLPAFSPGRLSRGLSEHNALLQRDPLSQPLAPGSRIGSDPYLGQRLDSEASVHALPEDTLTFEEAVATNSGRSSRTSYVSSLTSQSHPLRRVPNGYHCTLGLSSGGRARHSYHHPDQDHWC
T5 sequence (Q02410 whole entry): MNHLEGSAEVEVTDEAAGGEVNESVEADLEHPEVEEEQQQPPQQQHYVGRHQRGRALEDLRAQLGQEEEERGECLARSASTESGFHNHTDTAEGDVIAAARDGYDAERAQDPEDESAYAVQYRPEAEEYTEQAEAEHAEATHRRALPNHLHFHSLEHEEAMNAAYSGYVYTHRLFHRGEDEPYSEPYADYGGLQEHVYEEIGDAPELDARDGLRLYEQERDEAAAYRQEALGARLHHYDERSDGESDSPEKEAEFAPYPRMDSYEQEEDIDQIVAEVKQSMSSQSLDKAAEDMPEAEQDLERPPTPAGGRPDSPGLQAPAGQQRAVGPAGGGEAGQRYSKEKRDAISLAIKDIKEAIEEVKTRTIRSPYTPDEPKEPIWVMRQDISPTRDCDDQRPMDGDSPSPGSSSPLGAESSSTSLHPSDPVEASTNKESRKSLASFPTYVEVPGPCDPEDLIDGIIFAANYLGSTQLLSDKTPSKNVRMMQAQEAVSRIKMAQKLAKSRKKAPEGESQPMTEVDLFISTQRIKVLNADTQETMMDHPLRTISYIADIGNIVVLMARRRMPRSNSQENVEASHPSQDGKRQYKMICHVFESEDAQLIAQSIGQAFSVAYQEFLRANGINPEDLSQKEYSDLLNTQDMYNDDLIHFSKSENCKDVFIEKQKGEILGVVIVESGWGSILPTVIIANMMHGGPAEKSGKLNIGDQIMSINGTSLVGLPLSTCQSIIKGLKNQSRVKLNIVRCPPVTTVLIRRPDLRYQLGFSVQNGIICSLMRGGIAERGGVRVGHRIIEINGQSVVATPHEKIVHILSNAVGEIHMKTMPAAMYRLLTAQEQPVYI
T2 sequence (P25929 whole entry): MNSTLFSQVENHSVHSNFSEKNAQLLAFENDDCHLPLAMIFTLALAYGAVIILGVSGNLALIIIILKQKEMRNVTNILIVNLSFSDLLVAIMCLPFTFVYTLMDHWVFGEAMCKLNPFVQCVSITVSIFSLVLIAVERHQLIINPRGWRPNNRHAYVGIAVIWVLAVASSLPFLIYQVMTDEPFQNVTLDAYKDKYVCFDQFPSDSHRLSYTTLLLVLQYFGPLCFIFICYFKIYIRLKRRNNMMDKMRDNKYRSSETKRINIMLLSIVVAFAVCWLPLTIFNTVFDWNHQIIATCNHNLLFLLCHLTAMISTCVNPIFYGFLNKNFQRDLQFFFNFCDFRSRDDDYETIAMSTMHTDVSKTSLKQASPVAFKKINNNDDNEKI
T1 sequence (P49146 whole entry): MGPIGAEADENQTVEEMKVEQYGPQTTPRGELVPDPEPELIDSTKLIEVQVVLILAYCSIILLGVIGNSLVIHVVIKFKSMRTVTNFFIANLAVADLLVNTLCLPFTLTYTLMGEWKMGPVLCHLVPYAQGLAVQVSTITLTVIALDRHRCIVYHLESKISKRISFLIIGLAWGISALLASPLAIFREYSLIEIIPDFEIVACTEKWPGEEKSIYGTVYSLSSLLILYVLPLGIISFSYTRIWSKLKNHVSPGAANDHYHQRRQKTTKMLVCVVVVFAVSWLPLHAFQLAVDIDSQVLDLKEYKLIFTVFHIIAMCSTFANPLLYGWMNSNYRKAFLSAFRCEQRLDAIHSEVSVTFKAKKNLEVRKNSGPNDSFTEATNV
5-hydroxytryptamine receptor 1E, sequence (P28566 whole entry): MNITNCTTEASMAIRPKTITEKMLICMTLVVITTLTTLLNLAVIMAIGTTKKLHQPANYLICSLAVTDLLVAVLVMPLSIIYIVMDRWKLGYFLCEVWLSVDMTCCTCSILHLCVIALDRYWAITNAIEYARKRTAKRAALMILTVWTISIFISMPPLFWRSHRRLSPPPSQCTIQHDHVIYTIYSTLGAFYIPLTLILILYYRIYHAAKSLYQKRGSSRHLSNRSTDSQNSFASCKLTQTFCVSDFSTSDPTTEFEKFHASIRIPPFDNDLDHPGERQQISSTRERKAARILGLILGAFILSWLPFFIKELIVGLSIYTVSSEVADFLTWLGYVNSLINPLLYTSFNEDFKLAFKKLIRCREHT
26S proteasome non-ATPase regulatory subunit 14, sequence (O00487 whole entry): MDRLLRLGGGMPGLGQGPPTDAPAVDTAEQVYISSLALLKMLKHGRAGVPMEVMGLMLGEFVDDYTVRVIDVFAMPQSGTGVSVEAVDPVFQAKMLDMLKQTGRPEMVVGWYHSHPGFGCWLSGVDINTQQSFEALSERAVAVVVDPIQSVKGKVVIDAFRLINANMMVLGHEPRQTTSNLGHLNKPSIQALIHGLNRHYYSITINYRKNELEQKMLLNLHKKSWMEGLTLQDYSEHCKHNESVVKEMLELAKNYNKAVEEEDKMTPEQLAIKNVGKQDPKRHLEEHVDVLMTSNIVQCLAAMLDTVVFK
Mothers against decapentaplegic homolog 3, sequence (P84022 whole entry): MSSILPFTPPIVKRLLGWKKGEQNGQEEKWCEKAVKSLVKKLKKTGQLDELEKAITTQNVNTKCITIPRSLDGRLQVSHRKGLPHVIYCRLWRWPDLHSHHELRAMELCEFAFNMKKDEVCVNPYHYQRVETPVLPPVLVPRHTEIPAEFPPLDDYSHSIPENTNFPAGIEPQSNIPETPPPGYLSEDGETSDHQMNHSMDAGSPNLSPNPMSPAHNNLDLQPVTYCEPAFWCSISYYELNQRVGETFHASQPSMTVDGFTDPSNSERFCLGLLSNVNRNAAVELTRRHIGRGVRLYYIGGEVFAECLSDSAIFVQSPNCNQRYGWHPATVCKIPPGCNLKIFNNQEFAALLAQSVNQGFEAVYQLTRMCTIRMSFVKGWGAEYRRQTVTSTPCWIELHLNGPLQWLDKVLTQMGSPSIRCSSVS

O=C(Nc1ccc(OC(F)F)c(Cl)c1)C(c1ccccc1)c1ccccc1
AC50 (INS1): 8.95 µM (active)
IC50 [1]: 4.07 µM (active)
EC50 [2]: 1.29 µM (active)
IC50 [3]: 1.25 µM (active)
EC50 [4]: > 60 µM (inconclusive)

CCOc1ccc(Oc2c(/C=N/NC(C)=O)c(C)nn2-c2ccccc2)cc1
IC50 [5]: 4.53 µM (active)
IC50 [6]: 8.9 µM (active)

CC1CC(C)CN(C2=CC(=[N+]3CCCC3)CC(C)(C)C2)C1 (centres undefined)
AC50 [7]: 2.24 µM (active)
IC50 (HEK293 [8]): 7.24 µM (active)
IC50 [9]: 15.1 µM (not active)
IC50 (HEK293 [10]): 12.3 µM (inactive)
EC50 (HEK293 [11]): 2.22 µM (active)
IC50 [12]: > 35 µM (not active)
EC50 [2]: 0.159 µM (active)
IC50 (HEK293 [13]): > 20 µM (inactive)
EC50 [4]: > 60 µM (not active)

Cc1ccc(C(=O)Nc2nc3ccccc3[nH]2)cc1
AC50 [14]: 29.2 µM (active)
AC50 [15]: 35.2 µM (active)
AC50 [16]: > 52 µM (inactive)
IC50 [17]: > 13.3 µM (not active)
AC50 [18]: 1.29 µM (active)
AC50 [19]: 1.45 µM (active)

CC(=O)Oc1ccc(/C=N\NC(=O)c2cc3c(ccc4ccccc43)o2)cc1
IC50 [20]: > 100 µM (active)
EC50 [21]: > 195 µM (not active)
IC50 [22]: > 50 µM (inactive)
IC50 [23]: 4.06 µM (active)
IC50 [24]: 10.9 µM (active)
IC50 [25]: 30 µM (active)
IC50 [26]: 4.3 µM (active)
IC50 (Prothrombin): 75.6 µM (active)

COc1cccc(C(c2cc3c(cc2O)OCO3)N2CCN(C(c3cc4c(cc3O)OCO4)c3cccc(OC)c3O)CC2)c1O (centres undefined)
IC50 [27]: > 40 µM (not active)

COc1cc(C2C(C(=O)c3cc4ccccc4o3)=C(O)C(=O)N2c2cc(C)on2)cc(OC)c1OC (centres undefined)
EC50 [28]: > 260 µM (inactive)
IC50 [29]: > 39.8 µM (not active)
IC50 [30]: 4.1 µM (active)
